In patent publication US5480892A, “(N-phthalimidoalkyl)piperidines” (The Du Pont Merck Pharmaceutical Company, priority 1994, dated 1996):
pKi: −log10 of the molar value. Read-outs that look alike come from different tables or passages of the source.

Tests used:
[1] = test system: PCP-induced turning behavior in rats; test: PCP-Induced Turning Behavior in Rats; format: in vivo, rat (male Sprague-Dawley); settings: for ED50: Rattus norvegicus, po, 6-OHDA lesioned rats, drug p.o. 20 min before, PCP 1.5 mg/kg s.c., read-out: Inhibition of PCP-induced Turning (ED50 class)
Protocol: Male Sprague-Dawley rats (CD/CR, Charles River), weighing 190-290 g, were used for surgery. In order to spare […] neurons, rats were injected with 25 mg/kg imipramine intraperitoneal (i.p.) 30 min before surgery. The rats were anesthetized with a 1:1.2 ratio mixture of Xylazine:Ketamine given 0.1 mL/100 g body weight intramuscular (i.m.). A Ringers-Wydaze (100:0.01) solution was given to prevent dehydration. Dopamine was depleted in the right striatum by injecting the neurotoxin 6-hydroxydopamine (6-OHDA) into the substantia nigra of the right cerebral hemisphere. Five mg of 6-OHDA was dissolved in 5 mL of a 0.04% ascorbic acid solution which had been deoxygenated with nitrogen. Five μL of the 6-OHDA solution was injected into the substantia nigra through a 26 gauge needle over a five min period. Stereotaxic injection coordinates were -2.5 mm posterior to bregma, -2.1 mm right of the midsagittal suture, and -8.6 mm below the skull surface with the incisor bar set at +5.0 mm. Following surgery they were given 10 days to recover while housed four per cage (45.0 L×20.0 H×26.0 W) with ALPHA-dri bedding and ad lib access to Pro-Lab rodent chow and deionized water. […] At all times they were housed in the animal care facility under a 12--12 hour light/dark cycle (light on at 6:00 h, light off at 18:00 h).
Rotation rate and direction were determined with Coulbourn Instruments Rotometry Monitors. Clockwise and counter clockwise rotations were recorded at 30 and 60 min intervals. The rats were examined for correct lesion location by testing for rotational activity induced by subcutaneous (s.c.) injections of 3.0 mg/kg D-amphetamine SO4, and 2.0 mg/kg PCP HCl, respectively. These drugs were administered in the following sequence: Amphetamine was given 30 sec before testing. […]
The data was analyzed with an analysis of variance statistical test, and individual comparisons of each dose of test drug to control were made with Dunnett's multiple range test. The ED50 was calculated with a Litchfield and Wilcoxon test using percent of control values.

catalepsy in rats [2] = settings: rat, in vivo
[3] = test system: isolation-induced aggression in mice; test: Isolation-Induced Aggression in Mice; format: in vivo, mouse (male Balb/c); settings: for ED50: Mus musculus, po, 0.25 h, read-out: Inhibition of Isolation-induced Aggression (ED50 class)
Protocol: Male Balb/c mice (Charles River) were used. […] Isolated mice failing to consistently attack an intruder were eliminated from the colony.
Drug testing was carried out by treating the isolated mice with test drugs or standards. Fifteen min after dosing with drugs by the oral route (p.o.), one isolated mouse was removed from its home cage and placed in the home cage of another isolate. Scoring was a yes or no response for each pair. A maximum of 3 min was allowed for an attack and the pair was separated immediately upon an attack. Selection of home cage and intruder mice was randomized for each test. Mice were treated and tested twice a week with at least a 2 day washout period between treatments.

Sigma receptor = molecular target: T1, Sigma receptor (Cavia porcellus, UniProt Q60492); test: Sigma Receptor Binding Assay; format: guinea pig (male Hartley), brain membranes; settings: 1 nM (+)-[3H]SKF 10,047, guinea pig brain membranes, pH 7.4, 45 min room temperature; read-out: Receptor Binding Affinity Sigma (Ki class)
T1 construct: Brain membranes were prepared by the method of Tam; from tissue; host or cells: guinea pig whole brain membranes
T1 sequence (Q60492 whole entry): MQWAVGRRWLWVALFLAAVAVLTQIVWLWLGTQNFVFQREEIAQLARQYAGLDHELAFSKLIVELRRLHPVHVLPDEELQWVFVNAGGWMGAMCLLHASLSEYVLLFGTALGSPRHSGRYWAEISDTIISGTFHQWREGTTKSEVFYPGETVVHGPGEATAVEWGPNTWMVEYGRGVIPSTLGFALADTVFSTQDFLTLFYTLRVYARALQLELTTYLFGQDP

in vivo = settings: rat, po
Dopamine (D-2) receptor = molecular target: T2, Dopamine (D-2) receptor (Cavia porcellus, UniProt H0VE83); test: Dopamine Receptor Binding; format: guinea pig, striatum membranes; settings: 0.15 nM [3H]spiperone, guinea pig striatum, pH 7.7, 15 min 37° C.; read-out: Receptor Binding Affinity Dopamine (D-2) (Ki class)
T2 construct: Membranes were prepared from guinea pig striatum; from tissue; host or cells: guinea pig striatum membranes
T2 sequence (H0VE83 1-446): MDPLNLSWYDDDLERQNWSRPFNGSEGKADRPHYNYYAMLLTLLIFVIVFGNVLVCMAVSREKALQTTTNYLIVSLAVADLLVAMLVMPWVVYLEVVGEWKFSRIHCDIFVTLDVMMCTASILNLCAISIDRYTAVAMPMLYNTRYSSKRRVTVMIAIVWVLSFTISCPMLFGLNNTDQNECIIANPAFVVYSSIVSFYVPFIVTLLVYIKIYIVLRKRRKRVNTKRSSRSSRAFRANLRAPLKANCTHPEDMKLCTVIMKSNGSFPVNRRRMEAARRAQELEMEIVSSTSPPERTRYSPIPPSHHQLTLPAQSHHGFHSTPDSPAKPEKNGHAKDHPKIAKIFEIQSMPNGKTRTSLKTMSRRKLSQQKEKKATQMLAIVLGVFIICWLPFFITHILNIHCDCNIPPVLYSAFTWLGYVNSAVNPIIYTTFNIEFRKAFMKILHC
Protocol: Membranes were prepared from guinea pig striatum by the method described for sigma receptor binding. The membranes were then resuspended in 50 mM Tris HCl (9 mL per brain).
Nonspecific binding was measured in the presence of 100 nM (+)-butaclamol After 15 min of incubation at 37° C. samples were filtered rapidly through Whatman GF/C glass filters under negative pressure, and washed three times with ice-cold binding buffer (5 mL).

catalepsy in rats [4] = test: Induction of Catalepsy; settings: statement on Table III

Compound | ED50 [1] [mg/kg] | producing catalepsy (catalepsy in rats [2]) | ED50 ([3]; mice, p.o., 15 min after dosing) [mg/kg] | pKi (Sigma receptor) | ED50 (in vivo) [mg/kg] | pKi (Dopamine (D-2) receptor) | inhibiting PCP-induced turning behavior ([1]; statement on Table III, rats) | ED50 [3] [mg/kg] | inhibiting the isolation-induced aggressive behavior ([3]; statement on Table II) | producing catalepsy (catalepsy in rats [4])
O=C1[C@H]2CCCC[C@H]2C(=O)N1CC1CCN(CCc2ccccc2)CC1 [Example 3, 2-[1-(2-Phenylethyl)-4-piperidinylmethyl]-cis-3a,4,5,6,7,7a-hexahydro-1H-isoindole-1,3(2H)-dione] | 21 to 70 | does not produce catalepsy | 11 to 20 | 7.52 to 9.00 | > 70 | < 6.30 |  |  |  | 
O=C(CCCN1CCC(O)(c2ccc(Cl)cc2)CC1)c1ccc(F)cc1 [haloperidol, reference compound] | < 11 |  |  |  | < 11 |  | potent activity | < 11 | potent activities | very potent in producing catalepsy
